In PMC6656724 (Communications Biology, 2019):
In brackets after ≈: the same amount, converted by molar mass. Read-outs that look alike come from different tables or passages of the source.

Columns and labels:
[1] = molecular target: T1, Pseudomonas fluorescens KMO (PfKMO) (Pseudomonas fluorescens, UniProt Q84HF5, C252S/C461S); assay: biochemical
T1 construct: made in house; host or cells: E. coli BL21 (DE3)
Text: (§1) A combination of ligand- and structural-based virtual screening approaches (see supporting information for details) was used to identify an initial library of >1000 compounds that may be suitable as potential KMO inhibitors. These compounds were screened for inhibition of Pseudomonas fluorescens KMO (PfKMO) and Homo sapiens KMO (HsKMO) using high-throughput assays by monitoring the time-dependent oxidation of NADPH at 340 nm[23].
(§2) Small-molecule compounds were supplied by Biofocus (Charles River Laboratories International Inc., MA, USA), which were identified in silico as potential inhibitors (further details are described in the Supplementary Methods). Initial inhibition assays were performed against Pseudomonas fluorescens KMO (PfKMO) and Homo sapiens KMO (HsKMO) by monitoring the time-dependent absorbance change of NADPH at 340 nm. Purified KMO protein (200 nM) was incubated in 100 µL reaction buffer (20 mM potassium phosphate pH 8.0, 7 mM 2-mercaptoethanol) containing 100 μM NADPH, 100 μM L-Kyn and 20 μM potential inhibitors in 96-well plates. […] The inhibitors identified in the initial screens were validated and re-assayed individually in a 1 cm path-length quartz micro cuvette. […] Suppliers for target inhibitor compounds are listed in Supplementary Table 11.
(§3) Supplementary Figure 1. Examples of inhibition data used to generate IC50 values for selected KMO inhibitors. Fixed concentration of L -KYN (200 µM) and NADPH (100µM) were added into reaction buffer (HsKMO: 20mM potassium phosphate pH 8.0, 7 mM 2-mercaptoethanol; PfKMO: 20 mM HEPES, 10mM sodium acetate, pH 7.5, 2mM DTT). The reaction was initiated by the addition of KMO enzyme (HsKMO: 0.5µM; PfKMO: 0.1 µM). KMO activity was measured in the presence of a range of inhibitor concentrations. […]
(§4) 3.5 Steady-state enzymatic assays.
(§5) Initial screening assays and determination of IC50 values for each potential inhibitor compound were carried out using either 0.1 µM PfKMO or 0.5 µM HsKMO at fixed […]
(§6) (HsKMO: 20 mM potassium phosphate pH 8.0, 7 mM 2-mercaptoethanol; PfKMO:
(§7) 20 mM HEPES, 10 mM sodium acetate, pH 7.5, 2 mM DTT). KMO activity was measured in the presence of a range of inhibitor concentrations by monitoring the […]
consumption of NADPH at 340 nm upon addition of enzyme via a Cary 50 UV-Vis spectrophotometer (Agilent Technologies). Rates were determined from linear regression fits to the initial linear portion of the curves. All measurements were performed in triplicate. The IC50 values for inhibitors were obtained by plotting the percentage inhibition versus the inhibitor concentration and fitting to the Morrison equation16 (equation 1) using Origin 9.0 Software (OriginLab, Northampton, MA). […]

Homo sapiens KMO (HsKMO) = molecular target: T2, Homo sapiens KMO (HsKMO) (Homo sapiens, UniProt O15229); assay: KMO inhibition assay, NADPH oxidation at 340 nm (HsKMO); format: biochemical
T2 construct: GST; made in house
T2 sequence (O15229 whole entry): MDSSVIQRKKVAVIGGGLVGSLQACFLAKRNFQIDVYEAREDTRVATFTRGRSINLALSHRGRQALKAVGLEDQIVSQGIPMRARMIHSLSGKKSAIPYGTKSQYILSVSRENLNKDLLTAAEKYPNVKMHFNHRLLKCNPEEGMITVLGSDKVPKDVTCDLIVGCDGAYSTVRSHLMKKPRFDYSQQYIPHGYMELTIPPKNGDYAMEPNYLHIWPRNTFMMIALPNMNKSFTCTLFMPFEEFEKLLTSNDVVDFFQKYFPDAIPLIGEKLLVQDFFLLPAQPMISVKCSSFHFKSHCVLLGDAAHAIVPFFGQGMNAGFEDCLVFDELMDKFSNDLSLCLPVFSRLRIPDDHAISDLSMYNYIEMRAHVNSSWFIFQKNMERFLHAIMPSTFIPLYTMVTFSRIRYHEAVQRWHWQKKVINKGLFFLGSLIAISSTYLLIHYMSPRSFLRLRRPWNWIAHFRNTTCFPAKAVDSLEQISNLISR
Text: as §1, §2
Supplementary Figure 1. Examples of inhibition data used to generate IC50 values for selected KMO inhibitors.
as §3, with “NADPH” for “Supplementary Figure 1. Examples of inhibition data used to generate IC50 values for selected KMO inhibitors. Fixed concentration of L -KYN (200 µM) and NADPH”
as §4, §5, §6, §7
(§8) consumption of NADPH at 340 nm upon addition of enzyme via a Cary 50 UV-Vis spectrophotometer (Agilent Technologies). Rates were determined from linear regression fits to the initial linear portion of the curves. All measurements were performed in triplicate. The IC50 values for inhibitors were obtained by plotting the percentage inhibition versus the inhibitor concentration and fitting to the Morrison equation16 (equation 1) using Origin 9.0 Software (OriginLab, Northampton, MA).
E + I + K!"" − E + I + K!"" ! − 4[E][I] where v0 is the enzyme activity without inhibitor, vi is the enzyme activity with ligand

PfKMO = molecular target: T3, PfKMO (Pseudomonas fluorescens, UniProt Q84HF5, C252S/C461S); assay: biochemical; settings: substrates of PfKMO; read-out: Km
T3 construct: made in house; host or cells: E. coli BL21 (DE3)
T3 sequence (Q84HF5 whole entry C252S/C461S): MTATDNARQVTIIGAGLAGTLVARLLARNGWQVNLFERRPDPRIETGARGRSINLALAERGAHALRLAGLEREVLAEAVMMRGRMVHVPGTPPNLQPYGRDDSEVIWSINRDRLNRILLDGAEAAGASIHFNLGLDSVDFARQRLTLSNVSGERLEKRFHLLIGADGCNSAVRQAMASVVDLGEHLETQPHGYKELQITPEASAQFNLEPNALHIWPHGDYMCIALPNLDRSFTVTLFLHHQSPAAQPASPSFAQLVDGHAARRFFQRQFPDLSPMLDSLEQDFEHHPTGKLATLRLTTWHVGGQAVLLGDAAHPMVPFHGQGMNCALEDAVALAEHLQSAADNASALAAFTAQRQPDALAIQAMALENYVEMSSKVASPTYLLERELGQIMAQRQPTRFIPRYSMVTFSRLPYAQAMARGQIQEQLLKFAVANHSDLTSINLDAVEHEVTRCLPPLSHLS
Experimental: saturating concentrations of the L-KYN and NADPH substrates. Data are plotted […]
as §8
E + I + K!"" − E + I + K!"" ! − 4[E][I] where v0 is the enzyme activity without inhibitor, vi is the enzyme activity with ligand concentration [I], [E] is the enzyme concentration, [I] is the inhibitor concentration, K!"" is the apparent inhibition constant and IC = K!"" + [!] . If K!"" ≫ [!], IC ≈ […]
where Ki is the inhibition constant, [S] is the substrate concentration used in the assay and Km is the Michaelis-Menten constant17. […]
between Ki and Ki apparent values, as the conditions for measuring IC50 are different, Ki values can be used to compare with other reported KMO inhibitors.
Steady-state kinetic parameters for PfKMO were calculated by measuring initial rates […]
the observed rate of turnover (v) versus the varied substrate concentration were fitted to equation 2 using Origin 9.0 Software (OriginLab, Northampton, MA).
A B + K!! B + K!! A + K!!K!! where v is the initial rate of activity, Vmax is the maximum velocitie of the reaction, [A] and [B] are the substrate concentration, K!! and K!! are the Michaelis-Menten constant for different substrate and K!! is the inhibition (binding) constant of substrate A to the free enzyme while forming transitory complexes.18
Product inhibition studies were carried out by measuring reaction rates at varying […]
one substrate and varying concentrations of the other substrate. Inhibition studies with target compounds were carried out by measuring reaction rates at varying inhibitor concentrations at saturating concentrations of one substrate and varying concentrations of the other substrate. […]
were used to distinguish between different types of inhibition. The data were fitted to a straight line defined by the Lineweaver-Burke equation (equation 4), with the y intercept providing 1/Vmax and the x intercept giving -1/Km. […]

[2] = Kinetic solubility in PBS, pH 7.4 (2% DMSO); format: physicochemical; settings: PBS with 2% DMSO, pH 7.4, aqueous buffer, kinetic from dmso stock, PBS, pH 7.4 (2% DMSO)
[3] = Stability in mouse hepatic microsomes; settings: for half-life at 1 µM: mouse, microsomes
Experimental: 3.6.3 Compound stability in mouse hepatic microsomes and rat hepatocytes
A microsomal stability assay was performed as described in the BioFocus Standard
Operating Procedure ADME-SOP-83, using pooled hepatic mouse
Test and control compounds (midazolam,
dextromethorphan), were prepared in DMSO and incubated at an initial concentration
in the presence of the cofactor, NADPH (1 mM). Aliquots were removed at 0, 5, 10,
20 and 40 minutes for termination of reactions and compound extraction with ACN
containing an analytical internal standard. Samples were centrifuged and the
supernatant fractions analysed for parent compound by mass spectrometry (LC-
MS/MS). The amount of compound remaining (expressed as %) was determined from
the MS response in each sample relative to that in the T = 0 samples (normalised for
internal standard). Ln plots of the % remaining were used to determine the half-life
the slope of the Ln % remaining vs time curve. The in vitro intrinsic clearance Clint

[4] = Half-life Mean, mouse hepatic microsomes
[5] = Half-life n=1, mouse hepatic microsomes
[6] = Half-life n=2, mouse hepatic microsomes

T1 sequence (Q84HF5 whole entry C252S/C461S): as above

Compound	IC50 [1] [µM]	IC50 (Homo sapiens KMO (HsKMO)) [µM]	also measured
O=C(O)c1ccc(-c2cccc(Cl)c2)o1 [compound 17, 5-(3-chlorophenyl) furan-2-carboxylic acid]	15.9 ± 0.8	442	
CNC(=O)CN1C(=O)COc2cc(C)c(Cl)c(C)c21 [1f]	> 300	> 300	
O=C(O)c1ccc(-c2ccc(Br)c(Cl)c2)o1 [compound 19, 5-(4-bromo-3-chlorophenyl) furan-2-carboxylic acid]	0.7 ± 0.01	54.2	
NC(=O)C1=CN([C@@H]2O[C@H](COP(=O)(O)OP(=O)(O)OC[C@H]3O[C@@H](n4cnc5c(N)ncnc54)[C@H](OP(=O)(O)O)[C@@H]3O)[C@@H](O)[C@H]2O)C=CC1 [NADPH, reference compound]			Km (PfKMO): 16.9 ± 1.5 µM
Cc1cc2c(c(C)c1Cl)N(CC(=O)N(C)C)C(=O)CO2 [1e]	> 300	~300	
CC(C)n1c(CCC(=O)O)ccc1-c1ccc(Cl)cc1 [compound 14, 3-[5-(4-chlorophenyl)-1-(methylethyl)pyrrol-2-yl]propanoic acid]		38.8	
O=C(O)CCc1ccc(-c2cccs2)n1-c1ccc(Br)cc1 [compound 2, 3-[1-(4-bromophenyl)-5-(2-thienyl)-1H-pyrrol-2-yl] propanoic acid]	130 ± 18.7	1.5	
O=C(O)c1ccc(-c2ccc(F)c(Cl)c2)o1 [compound 18, 5-(3-chloro-4-fluorophenyl) furan-2-carboxylic acid]	2.4 ± 0.3	193	
COC(=O)[C@H]1[C@H]2C[C@@H]3c4[nH]c5cc(OC)ccc5c4CCN3C[C@H]2C[C@@H](OC(=O)c2cc(OC)c(OC)c(OC)c2)[C@@H]1OC [Reserpine, reference compound]			solubility at 2 h ([2]; read-out: Solubility Mean): 9 µM (≈ 5.48 µg/mL); solubility at 2 h ([2]; read-out: Solubility n=1): 9 µM (≈ 5.48 µg/mL); solubility at 2 h ([2]; read-out: Solubility n=2): 9 µM (≈ 5.48 µg/mL)
Cc1ccc2c(c1)cc(C(=O)N[C@@H](C(=O)O)c1ccccc1)n2C [compound 7, (R)-2-(1,5-dimethyl-1H-indole-2-carboxamido)-2-phenylacetic acid]	101 ± 9.1	21.3	
COc1ccc2c(c1)[C@]13CCCC[C@@H]1[C@H](C2)N(C)CC3 [Dextromethorphan, reference compound]			Mean intrinsic clearance ([3]; mouse hepatic microsomes): 97 µL/min/mg microsome protein; half-life at 1 µM [3, 4]: 29 min; half-life at 1 µM [3, 5]: 28 min; half-life at 1 µM [3, 6]: 29 min
O=C(O)c1ccc(-c2ccc(Cl)cc2Cl)o1 [compound 16, 5-(2,4-dichlorophenyl) furan-2-carboxylic acid]	70.2 ± 2.8	207	
COc1ccc(-c2cn(CC(=O)O)c(=O)cn2)cc1 [compound 15, 2-(5-(4-methoxyphenyl)-2-oxopyrazin-1(2H)-yl)acetic acid]		54.2	IC50 ([1]; read-out: IC50 PfKMO): 6.3 ± 0.6 µM
Cc1ncc2n1-c1ccc(Cl)cc1C(c1ccccc1F)=NC2 [Midazolam, reference compound]			Mean intrinsic clearance ([3]; mouse hepatic microsomes): > 554 µL/min/mg microsome protein; half-life at 1 µM [3, 4]: < 5 min; half-life at 1 µM [3, 5]: < 5 min; half-life at 1 µM [3, 6]: < 5 min
O=C(O)c1ccc(-c2cc(C(F)(F)F)ccc2Cl)o1 [compound 12, 5-[2-chloro-5-(trifluoromethyl)phenyl]furan-2-carboxylic acid]	54 ± 1.6	31.8	
O=C(O)c1ccc(-c2ccccc2C(F)(F)F)o1 [compound 11, 5-[2-(trifluoromethyl)phenyl]furan-2-carboxylic acid]	72.1 ± 1.9	144	
O=C(O)[C@@H]1C[C@H]1C(=O)c1ccc(Cl)c(Cl)c1 [UPF648, reference compound]	0.12 ± 0.03	0.06	
O=C(Nc1ccccc1C(=O)O)c1ccc(-c2ccc(Cl)cc2Cl)o1 [compound 10, 2-(5-(2,4-dichlorophenyl)furan-2-carboxamido)benzoic acid]	3 ± 0.1	1.6	
Cc1cc2c(c(C)c1Cl)N(CC(N)=O)C(=O)CO2 [1g]	> 300	> 300	
